Reference: US20190062428A1, “COMBINATION OF ANTI-CD47 ANTIBODIES AND CELL DEATH-INDUCING AGENTS, AND USES THEREOF” (Surface Oncology, Inc., priority 2017, published 2019)

Test system: Ri-1 tumors
Assay: Ri-1 human B cell lymphoma (DLBCL) subcutaneous xenograft, tumor volume
Format: in vivo, CB.17 SCID mice
Conditions: FIG. 4
Experimental: The Ri-1 cell line is a human B cell lymphoma line that represents the ABC-subtype of diffuse large cell B cell lymphoma (DLBCL) and harbors a BCL-2 amplification. ABT-199, also known as Venclexta™ or Venetoclax, is an oral BCL-2 inhibitor, and was used as the cell death-inducing agent.
Briefly, 1×10^7 Ri-1 cells were injected subcutaneously into the right flank of CB.17 SCID mice in a 1:1 mixture of RPMI and Matrigel. Tumors were allowed to grow until they were 200-300 mm^3.

In the case of `CC1(C)CCC(CN2CCN(c3ccc(C(=O)NS(=O)(=O)c4ccc(NCC5CCOCC5)c([N+](=O)[O-])c4)c(Oc4cnc5[nH]ccc5c4)c3)CC2)=C(c2ccc(Cl)cc2)C1` [ABT-199, reference compound], the single-agent anti-tumor activity (2.3D11 100 μg/mouse days 0, 3, 7, ABT-199 25 mg/kg days 0-4) was “potent single-agent anti-tumor activity” and the tumor re-growth (single agents as above, combination: 2.3D11 100 μg/mouse day 0, then oral ABT-199 25 mg/kg days 3, 4, 5) was “tumors re-grew”.
